Data reported in patent publication US11203598B2, “Compounds for repressing cancer cell growth” (Institute For Cancer Research, priority 2018, dated 2021).

What was measured:
HCT116 cells = assay: Cell Titer-Glo cell viability assay; assay type: cell-based, human; details: 72 hours, dose dependent
Procedure: (§1) Cell lines at a concentration of 4×10^3 cells/well were seeded out on an opaque 96-well plate and treated with CB002 and Analog 11 in ranging doses starting from 200 μmol/L with DMSO controls. At 72 hours after treatment, cells were mixed with 30 μL Cell Titer-Glo reagent and after ten minutes of room temperature incubation were imaged using IVIS imaging system (Xenogen).

HCT116 p53-null cells = assay: Cell Titer-Glo cell viability assay; assay type: cell-based, human; details: 72 hours, dose dependent
Procedure: as §1

[1] = test system: p53 pathway proteins in DLD-1 cells; assay: Western blot of p53 targets and LC3B; assay type: cell-based, human; details: for DR5 protein level: 8 and 24 hours
Procedure: (§2) After treatment, cells were harvested by trypsinization, washed with PBS, and lysed with RIPA buffer (Sigma-Aldrich) for 30 minutes to 1 hour at 4° C. Protein lysates were spun down and supernatant was collected. Protein quantification was performed using a Pierce™ BCA Protein Assay Kit (Thermo Fisher Scientific). 1×NuPAGE® LDS sample buffer (Thermo Fisher Scientific) and 2-Mercaptoethanol as the reducing agent (Sigma-Aldrich) were added to protein lysates, followed by boiling for 15 minutes at 95° C. Equal total protein amounts samples were loaded into NuPAGE™ Novex™ 4-12% Bis-Tris Protein Gels (1.5 mm, Thermo Fisher Scientific) and gel eletrophoresis was performed with NuPAGE™ MES SDS Running Buffer. Proteins were transferred onto an Immobilon-P membrane (PVDF, EMD Millipore) using a Bio-Rad system with a 10% Tris-Glycine and 10% methanol transfer buffer diluted in distilled and deionized water. After transfer, membranes were blocked with 10% milk in TBST solution and then incubated overnight with primary antibody, washed with TBST and incubated with secondary antibody for 1 hour. Incubations were performed in 5% milk in TBST solution. Signal was detected by using a chemiluminescent detection kit, followed by autoradiography. The following antibodies were used: p53 (DO-1, 1:1000, Santa Cruz), p73 (1:1000, Bethyl Laboratories), p21 and NOXA (1:250, EMD Millipore), DR5, FADD, cleaved caspase 3, cleaved caspase 8, cleaved PARP, and LC3B (1:1000, Cell Signaling), and β-actin (1:10000, Sigma).
(§3) Proteins were isolated using NP40 Lysis Buffer (20 mmol/L Tris-HCl (pH 7.4), 150 mmol/L NaCl, 5 mmol/L EDTA, 50 mmol/L NaF, 1 mmol/L glycerophosphate, 5 mmol/L Na4P2O7, 0.5% NP40, and complete protease inhibitor cocktail (Roche)) and electrophoresed through 4-12% SDS-PAGE followed by semi-dry transfer to PVDF membranes. The PVDF membranes were incubated with different antibodies including p21 (OP64-100UG, EMD Millipore (world wide web at emdmillipore.com/US/en/product/Antip21WAF1-(Ab-1)-Mouse-mAb-(EA10), EMD_BIO-OP64)), PUMA (12450S, Cell Signaling Technology, world wide web at cellsignal.com/products/primary-antibodies/puma-d30c10-rabbit-mab/12450), DR5 (3696S, Cell Signaling Technology, world wide web at cellsignal.com/products/primary-antibodies/dr5-antibody/3696?N=4294956287&Ntt=3696s&fromPage=plp& requestid=541668), p53(sc-126, Santa Cruz, world wide web at scbt.com/scbt/fr/product/p53-antibody-do-1), and RAN (610341, BD Transduction Laboratories, world wide web at bdbiosciences.com/us/reagents/research/antibodies-buffers/cell-biologyreagents/cell-biology-antibodies/purified-mouse-anti-ran-20ran/p/610341) in blocking buffer at 4° C. overnight. Bound antibody will be detected using IRDye secondary antibodies (LI-COR Biosciences,) in Odyssey blocking buffer for 1 hour then imaged using the ODYSSEY infrared imaging system.

SW480 cells [2] = assay: CellTiter-Glo luminescent cell viability assay; assay type: cell-based, human; details: for cell viability: dose dependent
Procedure: (§4) Cells were seeded in 96-well plates at a density of 5×10^3 cells per well. 20 μL of CellTiter-Glo® Reagent was added directly to the wells, following the manufacturer's protocol, and bioluminescence signal was determined using an IVIS imaging system.
as §1
(§5) To begin establishing the potential of CB002 as a candidate therapeutic agent, its therapeutic index was determined by treating cancer (DLD-1, SW480, and RXF393) and normal (WI38 and MRC5) cell lines with concentrations of CB002 ranging from 0-500 μM for a period of 72 hours and assessing cell viability by the CellTiter-Glo® luminescence assay (see, FIG. 2). CB002 has a significant therapeutic index among the cells tested.

[3] = test system: p53 targets in HCT116 p53-null cells; assay: Western blot of p53 targets; assay type: cell-based, human
Procedure: as §2, §3

[4] = test system: p53 pathway proteins in p73 knockdown DLD-1 cells; assay: Western blot of p53 targets; assay type: cell-based, human; details: for p21 expression: 8 and 24 hours
Procedure: as §2, §3

SW480 cells [5] = assay: CellTiter-Glo luminescent cell viability assay; assay type: cell-based, human; details: 24 hours
cell cycle G2 checkpoint = assay: propidium iodide staining cell cycle analysis; assay type: cell-based; details: 24 hour treatment, alone and with etoposide
Procedure: Referring to FIG. 22 (panels A-F), propidium iodide staining cell cycle analysis for 24 hour treatment with DMSO (panel A), CB002 (panel B), CB002 and etoposide (panel C), etoposide (panel D), caffeine (panel E), and caffeine and etoposixe (panel F). […] The deregulation of the G2 checkpoint as a mechanism by caffeine prevents […] tumor cells that are treated with DNA damaging drugs, such as etoposide, from arresting to have time to repair, and thus sensitizes cancer cells to cell death.

[6] = test system: normal (WI38 and MRC5) cell lines; assay: CellTiter-Glo cell viability, normal cell lines (summary); assay type: cell-based; details: Homo sapiens; 72 hours
Procedure: as §4, §5

[7] = 8 hours, 25 μmol/L and 50 μmol/L
[8] = 24 hours, 12 μmol/L of CB002 and 25 μmol/L of Analog 11

Cn1c(=O)c2c(nc(Nc3ccccc3)n2C)n(C)c1=O [Analog 11, 8-anilino-1,3,7-trimethyl-3,7-dihydro-1Hpurine-2,6-dione]
cell viability (HCT116 cells): reduced cell viability | cell viability (HCT116 p53-null cells): reduced cell viability | DR5 protein level [1]: no change of DR5 | PUMA protein level [1, 7]: an increase at the 25 μmol/L but not the 50 μmol/L | p21 protein level [1, 7]: minor increase in p21 | PUMA protein level ([1]; 24 hours): an increase in PUMA | p21 protein level [1, 8]: moderate increase in p21 | cell viability (SW480 cells [2]; 72 hours): reduced cell viability | p21 protein level ([3]; 8 hours): increase moderately | PUMA protein level [3, 7]: appeared to increase | PUMA protein level ([3]; 24 hours): slight decrease | p21 protein level ([3]; 24 hours): no consistent difference | p21 expression [4]: absent | PUMA expression ([4]; 8 hours, over control): increased expression | PUMA expression ([4]; 24 hours): reduction in PUMA | combination index with Irinotecan (SW480 cells [5]; 0-100 μM Irinotecan with 0-200 μM Analog 11, CompuSyn): synergizes with Irinotecan

Cn1c(=O)c2[nH]c(Nc3ccccc3)nc2n(C)c1=O [CB002, 8-anilino-1,3-dimethyl-3,7-dihydro-1H-purine-2,6-dione]
cell viability (HCT116 cells): reduced cell viability | cell viability (HCT116 p53-null cells): reduced cell viability | LC3B protein expression time course ([1]; 160 μM, 0-48 hours): initial increase of LC3B | DR5 protein level [1]: slightly increased | PUMA protein level [1, 7]: minor increase in PUMA | p21 protein level [1, 7]: minor increase in p21 | PUMA protein level ([1]; 24 hours): an increase in PUMA | p21 protein level [1, 8]: moderate increase in p21 | effect on cell cycle G2 checkpoint (cell cycle G2 checkpoint): does not appear to deregulate the G2 cell cycle checkpoint | combination index (CI), CB002 and CPT-11 (SW480 cells [2]; 72 hours): synergism | cell viability (SW480 cells [2]; 72 hours): reduced cell viability | combination index (CI), CB002 and 5-FU (SW480 cells [2]; 72 hours, CI<1 indicates synergism): < 1.0 | cell viability, combination with 5-FU (SW480 cells [2]; CB002 (22 μM and 66 μM) with 5-FU (60 μg/ml), 72 hours, versus single agents): significantly reduced cell viability | cell viability, combination with CPT-11 (SW480 cells [2]; CB002 (66 μM) and CPT-11 (a series of doses), 72 hours, versus single agents): significantly reduced cell viability | IC50 (SW480 cells [2]; Homo sapiens, SW480, 72 hours, GraphPad): 96.5 µM | IC50 [6]: ~650 µM | p21 protein level ([3]; 8 hours): increase moderately | p21 protein level ([3]; 24 hours): no consistent difference | p21 expression [4]: absent | PUMA expression ([4]; 8 hours, over control): increased expression | PUMA expression ([4]; 24 hours): largely unchanged from control | combination index with Ganetespib (SW480 cells [5]; 0-20 μM Ganetespib with 0-200 μM CB002, CompuSyn): synergizes with Ganetespib
